This is an account of results in US20130178477A1, “METHODS OF TREATING DIABETIC NEUROPATHY USING BENZENESULFONAMIDES” (AbbVie Inc., priority 2012, published 2013).

The conditions of series [1]: cited from earlier work.
Series [2] is described as follows: Ongoing Phase 2 efficacy and safety study in subjects with diabetic neuropathic pain. The series is classed as in vivo, human. The conditions noted are these: 100 mg BID up to 6 weeks. How it is done:
(§1) In this study subjects with diabetic neuropathic pain were administered 100 mg BID up to 6 weeks and dosing has been completed. Nevertheless, if there is any new safety signal observed during this study, dosing of Compound A can be discontinued based on the joint decision of the investigators and study sponsor's medical monitor.
(§2) Single doses of Compound A up to 170 mg were well-tolerated in healthy subjects. The Compound A dose of 100 mg twice daily (BID) is the clinical dose used in the ongoing Phase 2a study in subjects with diabetic neuropathic pain. The dose of 100 mg is selected in the current study to explore the effect of Compound A in a microneurography model in order to bridge the efficacy outcome of Compound A in the Phase 2a study.

In series [3] the target is T-type (Cav3.2) calcium channel (Homo sapiens, UniProt O95180). Nature of the series: T-type calcium channel block (statement of selectivity).
Sequence of T-type (Cav3.2) calcium channel (O95180 whole entry): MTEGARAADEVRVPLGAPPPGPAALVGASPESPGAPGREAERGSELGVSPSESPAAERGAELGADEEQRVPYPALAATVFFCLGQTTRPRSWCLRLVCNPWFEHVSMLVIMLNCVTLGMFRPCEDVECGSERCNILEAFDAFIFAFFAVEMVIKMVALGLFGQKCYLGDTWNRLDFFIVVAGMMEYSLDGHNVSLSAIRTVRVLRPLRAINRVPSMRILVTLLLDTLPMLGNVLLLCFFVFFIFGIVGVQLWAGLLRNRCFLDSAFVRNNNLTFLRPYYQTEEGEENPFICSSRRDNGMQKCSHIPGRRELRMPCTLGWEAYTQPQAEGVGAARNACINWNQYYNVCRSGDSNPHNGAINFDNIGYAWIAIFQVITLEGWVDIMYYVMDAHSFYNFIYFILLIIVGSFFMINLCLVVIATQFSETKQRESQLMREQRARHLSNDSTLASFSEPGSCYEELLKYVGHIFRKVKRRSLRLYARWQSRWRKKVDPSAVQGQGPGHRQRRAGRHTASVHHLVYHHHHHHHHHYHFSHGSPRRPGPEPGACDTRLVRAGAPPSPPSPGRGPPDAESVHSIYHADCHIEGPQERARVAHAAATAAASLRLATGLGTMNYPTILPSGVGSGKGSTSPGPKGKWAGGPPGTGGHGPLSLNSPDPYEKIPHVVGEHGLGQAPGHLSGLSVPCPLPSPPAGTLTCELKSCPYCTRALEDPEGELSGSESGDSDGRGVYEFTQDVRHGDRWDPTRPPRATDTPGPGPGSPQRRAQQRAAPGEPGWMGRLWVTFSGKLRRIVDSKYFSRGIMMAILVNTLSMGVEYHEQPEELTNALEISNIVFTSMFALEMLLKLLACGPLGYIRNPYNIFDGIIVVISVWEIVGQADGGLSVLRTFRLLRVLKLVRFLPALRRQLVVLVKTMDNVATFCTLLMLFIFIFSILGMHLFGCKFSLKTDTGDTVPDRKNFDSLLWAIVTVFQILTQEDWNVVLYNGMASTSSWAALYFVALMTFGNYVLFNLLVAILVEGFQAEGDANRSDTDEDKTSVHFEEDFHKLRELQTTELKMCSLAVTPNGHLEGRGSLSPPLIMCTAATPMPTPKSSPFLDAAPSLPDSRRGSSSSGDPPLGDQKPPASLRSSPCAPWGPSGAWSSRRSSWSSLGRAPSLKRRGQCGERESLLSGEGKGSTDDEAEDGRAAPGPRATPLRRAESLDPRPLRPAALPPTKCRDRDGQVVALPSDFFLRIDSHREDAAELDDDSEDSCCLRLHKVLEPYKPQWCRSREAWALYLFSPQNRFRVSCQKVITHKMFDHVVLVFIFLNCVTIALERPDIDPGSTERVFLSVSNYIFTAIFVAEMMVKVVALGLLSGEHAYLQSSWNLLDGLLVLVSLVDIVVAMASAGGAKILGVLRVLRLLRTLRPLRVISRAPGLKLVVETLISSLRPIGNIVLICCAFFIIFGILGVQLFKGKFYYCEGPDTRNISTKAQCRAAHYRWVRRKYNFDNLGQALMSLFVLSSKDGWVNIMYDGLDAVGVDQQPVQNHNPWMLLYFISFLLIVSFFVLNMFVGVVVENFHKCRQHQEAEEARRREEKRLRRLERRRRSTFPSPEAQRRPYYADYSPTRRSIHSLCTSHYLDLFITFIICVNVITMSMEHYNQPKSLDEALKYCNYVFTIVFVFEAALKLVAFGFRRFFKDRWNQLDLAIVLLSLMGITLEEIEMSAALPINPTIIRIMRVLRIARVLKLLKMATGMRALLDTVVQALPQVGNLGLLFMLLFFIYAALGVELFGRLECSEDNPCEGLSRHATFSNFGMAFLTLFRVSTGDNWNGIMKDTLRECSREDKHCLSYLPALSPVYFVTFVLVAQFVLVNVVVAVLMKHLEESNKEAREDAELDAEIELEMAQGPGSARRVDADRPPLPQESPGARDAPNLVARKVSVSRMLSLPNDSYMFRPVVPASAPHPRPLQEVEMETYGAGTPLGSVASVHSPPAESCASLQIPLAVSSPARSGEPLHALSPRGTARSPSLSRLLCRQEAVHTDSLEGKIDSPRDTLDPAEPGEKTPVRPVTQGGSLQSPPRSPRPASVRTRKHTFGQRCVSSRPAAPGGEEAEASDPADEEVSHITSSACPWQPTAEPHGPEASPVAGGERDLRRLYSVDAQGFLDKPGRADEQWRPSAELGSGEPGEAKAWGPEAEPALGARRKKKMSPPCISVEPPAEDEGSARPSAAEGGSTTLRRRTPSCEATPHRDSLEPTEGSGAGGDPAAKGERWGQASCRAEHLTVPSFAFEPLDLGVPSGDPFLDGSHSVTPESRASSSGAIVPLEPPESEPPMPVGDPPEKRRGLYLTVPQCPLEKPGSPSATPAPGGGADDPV
Series [4] is described as follows: Phase 1 first-in-human safety, tolerability and pharmacokinetic studies of Compound A in healthy subjects. It counts as in vivo. How it is done: as §1, §2
The safety, tolerability, and pharmacokinetics of Compound A in humans have been evaluated in 94 healthy adult subjects in the Phase 1 first-in-human (FIH) study with the single dose up to 170 mg and multiple doses up to 160 mg for 7 to 14 days. […] Given that Compound A is an investigational drug and this study will be conducted in diabetic patient population that generally has high risk factors, inclusion and exclusion have been carefully established to avoid exposing patients to undue risk. In addition, adequate safety monitoring procedures and stopping criteria are placed in the protocol.

The mark [5] stands for this setting: 94 healthy adult subjects, single dose up to 170 mg, multiple doses up to 160 mg for 7 to 14 days.

Consider `CCN(CC)CC(=O)Nc1c(C)cccc1C` [Lidocaine], for which, in series [1] (IV infusion 2 mg/kg or 5 mg/kg, patients with painful diabetic neuropathy), the effect on pain entry is recorded as “reduction of pain”. In addition, the “pain relief versus placebo” value in series [1] (IV infusion 5 mg/kg, patients with painful diabetic neuropathy) is on record as “consistent superiority to placebo”. For the same compound, in series [1] (patients with diabetic neuropathy), the “duration of pain relief following infusion” value is “up to 21 days”. Further, the “effect of systemic administration in neuropathic pain conditions” value in series [1] (systemic administration, several neuropathic pain conditions) was “analgesic effects”.
As to `O=C(c1cc(S(=O)(=O)Nc2ccccc2F)c(F)cc1Cl)N1CCN2CCC[C@@H]2C1` [Compound A, 4-chloro-2-fluoro-N-(2-fluorophenyl)-5-[(8aR)-hexahydropyrrolo[1,2-a]pyrazin-2(1H)-ylcarbonyl]benzenesulfonamide], in series [2], the safety findings entry was “no clinically important safety findings”. The “selectivity as calcium channel blocker” value in series [3] was “highly selective”. Further, in series [4] (94 healthy adult subjects, single dose up to 170 mg and multiple doses up to 160 mg for 7 to 14 days), the tolerability result is “well tolerated”. In addition, in series [4] (setting [5]), the “dose dependence of occurrence of adverse events” value is reported as “does not appear to be dose-dependent”; the “findings in vital signs, ECG and laboratory tests” value is reported as “no clinically relevant findings”; the “severity of adverse events” value was “mild except one event”. Besides, the safety findings entry in series [4] (Phase 1 studies in healthy adults and healthy elderly subjects) is “no clinically important safety findings”. Further, the “adverse drug reactions in the current clinical program” value in series [4] (current clinical program) is “no adverse drug reactions identified”. Besides, the “tolerability of single doses” value in series [4] (single doses up to 170 mg, healthy subjects) is on record as “well-tolerated”.
